Measured values reported in ChEMBL document CHEMBL4507291 (2021).

Experiments:
[1] = biological target: D(2) dopamine receptor (Homo sapiens) (UniProt P14416); conditions: Compound concentration 10.0 uM
[2] = biological target: T1, Mitogen-activated protein kinase kinase kinase 5 (Homo sapiens) (UniProt Q99683); experiment: MAP3K5 (ASK1) Kinase screen; conditions: Compound concentration 1.0 uM
T1 sequence (whole entry): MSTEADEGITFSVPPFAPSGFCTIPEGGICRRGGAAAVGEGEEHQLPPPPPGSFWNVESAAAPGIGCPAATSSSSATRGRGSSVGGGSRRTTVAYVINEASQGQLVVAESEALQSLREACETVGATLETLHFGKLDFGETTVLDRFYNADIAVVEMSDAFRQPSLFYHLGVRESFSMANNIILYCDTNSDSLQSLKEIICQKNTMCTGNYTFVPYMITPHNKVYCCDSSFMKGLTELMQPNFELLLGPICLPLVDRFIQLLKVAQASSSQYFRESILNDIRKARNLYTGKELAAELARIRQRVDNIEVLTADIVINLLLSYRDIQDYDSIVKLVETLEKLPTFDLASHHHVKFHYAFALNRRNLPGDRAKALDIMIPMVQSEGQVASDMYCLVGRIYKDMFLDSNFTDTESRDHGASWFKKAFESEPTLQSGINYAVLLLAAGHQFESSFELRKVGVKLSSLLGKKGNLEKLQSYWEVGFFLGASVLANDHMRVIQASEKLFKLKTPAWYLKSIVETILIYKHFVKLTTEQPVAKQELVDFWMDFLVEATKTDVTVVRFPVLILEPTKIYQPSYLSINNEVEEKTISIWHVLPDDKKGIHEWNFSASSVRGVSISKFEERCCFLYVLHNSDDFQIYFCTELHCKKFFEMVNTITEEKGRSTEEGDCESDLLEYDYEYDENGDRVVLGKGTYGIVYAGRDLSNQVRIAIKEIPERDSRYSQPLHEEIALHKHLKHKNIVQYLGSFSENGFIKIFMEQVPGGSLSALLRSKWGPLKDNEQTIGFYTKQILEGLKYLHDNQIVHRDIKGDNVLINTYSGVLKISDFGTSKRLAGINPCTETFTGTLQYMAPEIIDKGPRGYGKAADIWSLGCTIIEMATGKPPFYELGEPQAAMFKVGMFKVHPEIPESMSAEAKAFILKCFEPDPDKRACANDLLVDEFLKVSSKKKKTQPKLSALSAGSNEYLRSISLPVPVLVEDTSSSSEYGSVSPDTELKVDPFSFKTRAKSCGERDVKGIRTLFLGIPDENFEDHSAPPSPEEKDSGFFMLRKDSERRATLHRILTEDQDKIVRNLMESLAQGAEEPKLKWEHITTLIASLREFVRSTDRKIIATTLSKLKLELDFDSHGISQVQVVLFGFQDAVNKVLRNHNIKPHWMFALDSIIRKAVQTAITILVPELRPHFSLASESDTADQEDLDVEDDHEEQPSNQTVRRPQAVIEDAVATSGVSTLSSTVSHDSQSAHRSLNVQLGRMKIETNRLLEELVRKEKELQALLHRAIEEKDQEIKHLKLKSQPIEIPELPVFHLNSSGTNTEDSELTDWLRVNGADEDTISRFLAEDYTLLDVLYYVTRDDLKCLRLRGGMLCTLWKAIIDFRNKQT

[3] = biological target: Nociceptin receptor (Homo sapiens) (UniProt P41146); experiment: Orphanin ORL1 Eurofins-Panlabs radioligand binding assay; conditions: Compound concentration 10.0 uM
[4] = biological target: Gamma-aminobutyric acid type B receptor subunit 1 (Homo sapiens) (UniProt Q9UBS5); conditions: Rattus norvegicus; Compound concentration 10.0 uM
[5] = biological target: Receptor tyrosine-protein kinase erbB-2 (Homo sapiens) (UniProt P04626); experiment: ERBB2 (HER2) Kinase screen; conditions: Compound concentration 1.0 uM
[6] = tested on: Epidermal growth factor receptor (Homo sapiens), P00533 [L858R,T790M]; experiment: EGFR (ErbB1) T790M L858R Kinase screen; conditions: Compound concentration 1.0 uM
[7] = biological target: Serine/threonine-protein kinase PAK 4 (Homo sapiens) (UniProt O96013); experiment: PAK4 Kinase screen; conditions: Compound concentration 1.0 uM
Rattus norvegicus = organism: Rattus norvegicus; conditions: Compound concentration 10.0 uM
[8] = biological target: Casein kinase I isoform gamma-3 (Homo sapiens) (UniProt Q9Y6M4); experiment: CSNK1G3 (CK1 gamma 3) Kinase screen; conditions: Compound concentration 1.0 uM
[9] = biological target: Vasopressin V1b receptor (Homo sapiens) (UniProt P47901); experiment: Inhibition of Vasopressin V1B at 10 µM in the Eurofins-Panlabs radioligand binding assay (Eurofins_assay_287560); set-up: ligand concentration 1 nM; conditions: Compound concentration 10.0 uM
[10] = biological target: ATP-sensitive inward rectifier potassium channel 11 (Cricetulus griseus) (UniProt A0A3L7HHE1); experiment: Inhibition of Potassium Channel [KATP] at 10 µM in the Eurofins-Panlabs radioligand binding assay (Eurofins_assay_265600); conditions: Cricetinae; Compound concentration 10.0 uM
[11] = biological target: Beta-1 adrenergic receptor (Homo sapiens) (UniProt P08588); conditions: Compound concentration 10.0 uM
[12] = biological target: PI3-kinase p110-alpha/p85-alpha (Homo sapiens) (UniProt P27986+P42336); experiment: PIK3CA/PIK3R1 (p110 alpha/p85 alpha) Kinase screen; assay type: protein-complex assay; conditions: Compound concentration 1.0 uM

Measured: inhibition

Chain of D(2) dopamine receptor (Homo sapiens) (P14416 whole entry): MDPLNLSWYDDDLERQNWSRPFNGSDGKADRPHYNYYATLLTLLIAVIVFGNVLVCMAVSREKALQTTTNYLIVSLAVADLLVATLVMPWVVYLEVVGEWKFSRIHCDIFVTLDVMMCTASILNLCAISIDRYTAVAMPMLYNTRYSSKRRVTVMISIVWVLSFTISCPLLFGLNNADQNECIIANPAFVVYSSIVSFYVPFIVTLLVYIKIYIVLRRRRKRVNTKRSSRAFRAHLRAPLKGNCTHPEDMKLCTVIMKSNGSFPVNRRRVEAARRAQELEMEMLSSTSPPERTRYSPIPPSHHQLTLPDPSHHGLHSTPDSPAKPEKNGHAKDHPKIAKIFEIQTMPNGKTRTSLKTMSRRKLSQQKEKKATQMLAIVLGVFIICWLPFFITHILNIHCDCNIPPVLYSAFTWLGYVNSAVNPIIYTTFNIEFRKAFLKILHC
Chain of Casein kinase I isoform gamma-3 (Homo sapiens) (Q9Y6M4 whole entry, looked up, canonical isoform): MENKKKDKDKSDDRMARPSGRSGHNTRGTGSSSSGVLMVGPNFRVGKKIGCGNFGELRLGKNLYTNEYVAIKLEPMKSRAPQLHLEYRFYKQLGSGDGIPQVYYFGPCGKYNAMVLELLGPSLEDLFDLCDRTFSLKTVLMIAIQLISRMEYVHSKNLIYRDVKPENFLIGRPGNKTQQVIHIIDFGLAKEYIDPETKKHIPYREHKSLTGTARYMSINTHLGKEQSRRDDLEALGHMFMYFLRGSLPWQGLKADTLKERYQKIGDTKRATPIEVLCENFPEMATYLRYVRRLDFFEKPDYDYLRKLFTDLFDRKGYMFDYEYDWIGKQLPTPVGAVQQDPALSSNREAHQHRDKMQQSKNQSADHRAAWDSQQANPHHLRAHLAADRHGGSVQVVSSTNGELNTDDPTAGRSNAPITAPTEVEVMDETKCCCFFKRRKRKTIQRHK
Chain of Receptor tyrosine-protein kinase erbB-2 (Homo sapiens) (P04626 whole entry): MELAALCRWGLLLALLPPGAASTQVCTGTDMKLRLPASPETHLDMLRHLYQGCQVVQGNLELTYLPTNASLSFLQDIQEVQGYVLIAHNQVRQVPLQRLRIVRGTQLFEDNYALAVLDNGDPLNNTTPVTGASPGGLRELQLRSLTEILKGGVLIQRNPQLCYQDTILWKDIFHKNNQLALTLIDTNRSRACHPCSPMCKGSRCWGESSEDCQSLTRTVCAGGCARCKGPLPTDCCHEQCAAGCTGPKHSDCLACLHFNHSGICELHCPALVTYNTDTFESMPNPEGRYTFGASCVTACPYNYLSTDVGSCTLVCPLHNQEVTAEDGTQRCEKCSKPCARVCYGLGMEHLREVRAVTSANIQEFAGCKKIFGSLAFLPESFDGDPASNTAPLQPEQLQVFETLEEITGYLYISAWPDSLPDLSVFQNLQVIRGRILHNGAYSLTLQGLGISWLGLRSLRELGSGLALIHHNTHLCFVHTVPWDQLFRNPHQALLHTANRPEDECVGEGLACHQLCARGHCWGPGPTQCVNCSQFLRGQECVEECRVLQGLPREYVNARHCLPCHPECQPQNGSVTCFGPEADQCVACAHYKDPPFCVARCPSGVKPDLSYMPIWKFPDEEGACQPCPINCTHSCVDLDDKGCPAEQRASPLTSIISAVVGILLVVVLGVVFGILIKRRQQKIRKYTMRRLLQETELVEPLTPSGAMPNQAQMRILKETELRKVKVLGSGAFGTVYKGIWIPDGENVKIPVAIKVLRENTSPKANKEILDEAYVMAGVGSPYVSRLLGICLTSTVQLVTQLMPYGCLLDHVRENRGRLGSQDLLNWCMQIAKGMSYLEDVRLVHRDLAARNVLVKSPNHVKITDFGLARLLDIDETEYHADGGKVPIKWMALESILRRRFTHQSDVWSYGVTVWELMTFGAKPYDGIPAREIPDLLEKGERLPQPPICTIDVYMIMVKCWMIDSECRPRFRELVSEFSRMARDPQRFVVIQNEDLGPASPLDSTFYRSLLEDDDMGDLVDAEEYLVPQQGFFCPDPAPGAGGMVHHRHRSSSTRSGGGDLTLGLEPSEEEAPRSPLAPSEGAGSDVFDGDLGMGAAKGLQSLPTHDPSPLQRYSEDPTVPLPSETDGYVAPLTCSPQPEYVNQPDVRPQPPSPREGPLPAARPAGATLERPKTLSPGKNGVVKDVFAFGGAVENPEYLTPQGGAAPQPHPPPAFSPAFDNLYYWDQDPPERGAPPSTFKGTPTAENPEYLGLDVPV
Chain of Serine/threonine-protein kinase PAK 4 (Homo sapiens) (O96013 whole entry, looked up): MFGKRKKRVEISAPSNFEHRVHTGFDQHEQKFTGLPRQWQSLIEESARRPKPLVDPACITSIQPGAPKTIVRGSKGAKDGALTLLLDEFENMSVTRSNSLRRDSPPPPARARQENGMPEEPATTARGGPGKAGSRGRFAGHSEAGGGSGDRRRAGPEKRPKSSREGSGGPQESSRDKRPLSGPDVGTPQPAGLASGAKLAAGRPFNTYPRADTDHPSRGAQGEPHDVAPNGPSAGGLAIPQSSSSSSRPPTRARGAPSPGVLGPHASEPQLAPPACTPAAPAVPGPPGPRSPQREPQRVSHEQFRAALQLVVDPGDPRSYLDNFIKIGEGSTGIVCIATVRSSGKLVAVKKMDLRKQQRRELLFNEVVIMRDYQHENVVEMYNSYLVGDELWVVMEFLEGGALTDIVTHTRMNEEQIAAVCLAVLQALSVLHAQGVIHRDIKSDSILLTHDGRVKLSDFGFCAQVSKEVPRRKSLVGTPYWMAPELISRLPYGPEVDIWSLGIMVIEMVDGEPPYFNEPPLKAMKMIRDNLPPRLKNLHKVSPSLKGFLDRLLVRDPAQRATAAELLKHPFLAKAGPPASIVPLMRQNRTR
Chain of Beta-1 adrenergic receptor (Homo sapiens) (P08588 whole entry, looked up): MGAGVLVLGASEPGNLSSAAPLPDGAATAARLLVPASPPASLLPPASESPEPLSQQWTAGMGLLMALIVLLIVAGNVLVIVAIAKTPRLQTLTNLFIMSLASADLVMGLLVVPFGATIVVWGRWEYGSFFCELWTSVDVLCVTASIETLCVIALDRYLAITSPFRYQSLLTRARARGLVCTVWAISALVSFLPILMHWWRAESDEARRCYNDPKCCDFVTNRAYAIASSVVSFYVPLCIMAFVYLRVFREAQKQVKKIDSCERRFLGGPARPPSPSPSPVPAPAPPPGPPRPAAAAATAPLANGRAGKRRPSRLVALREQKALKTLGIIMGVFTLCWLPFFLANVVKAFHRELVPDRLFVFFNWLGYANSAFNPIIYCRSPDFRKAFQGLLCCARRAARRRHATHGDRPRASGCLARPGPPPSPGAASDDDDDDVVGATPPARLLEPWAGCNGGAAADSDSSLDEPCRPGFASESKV
Chain of Epidermal growth factor receptor (Homo sapiens), P00533 [L858R,T790M] (P00533 whole entry T790M/L858R, looked up): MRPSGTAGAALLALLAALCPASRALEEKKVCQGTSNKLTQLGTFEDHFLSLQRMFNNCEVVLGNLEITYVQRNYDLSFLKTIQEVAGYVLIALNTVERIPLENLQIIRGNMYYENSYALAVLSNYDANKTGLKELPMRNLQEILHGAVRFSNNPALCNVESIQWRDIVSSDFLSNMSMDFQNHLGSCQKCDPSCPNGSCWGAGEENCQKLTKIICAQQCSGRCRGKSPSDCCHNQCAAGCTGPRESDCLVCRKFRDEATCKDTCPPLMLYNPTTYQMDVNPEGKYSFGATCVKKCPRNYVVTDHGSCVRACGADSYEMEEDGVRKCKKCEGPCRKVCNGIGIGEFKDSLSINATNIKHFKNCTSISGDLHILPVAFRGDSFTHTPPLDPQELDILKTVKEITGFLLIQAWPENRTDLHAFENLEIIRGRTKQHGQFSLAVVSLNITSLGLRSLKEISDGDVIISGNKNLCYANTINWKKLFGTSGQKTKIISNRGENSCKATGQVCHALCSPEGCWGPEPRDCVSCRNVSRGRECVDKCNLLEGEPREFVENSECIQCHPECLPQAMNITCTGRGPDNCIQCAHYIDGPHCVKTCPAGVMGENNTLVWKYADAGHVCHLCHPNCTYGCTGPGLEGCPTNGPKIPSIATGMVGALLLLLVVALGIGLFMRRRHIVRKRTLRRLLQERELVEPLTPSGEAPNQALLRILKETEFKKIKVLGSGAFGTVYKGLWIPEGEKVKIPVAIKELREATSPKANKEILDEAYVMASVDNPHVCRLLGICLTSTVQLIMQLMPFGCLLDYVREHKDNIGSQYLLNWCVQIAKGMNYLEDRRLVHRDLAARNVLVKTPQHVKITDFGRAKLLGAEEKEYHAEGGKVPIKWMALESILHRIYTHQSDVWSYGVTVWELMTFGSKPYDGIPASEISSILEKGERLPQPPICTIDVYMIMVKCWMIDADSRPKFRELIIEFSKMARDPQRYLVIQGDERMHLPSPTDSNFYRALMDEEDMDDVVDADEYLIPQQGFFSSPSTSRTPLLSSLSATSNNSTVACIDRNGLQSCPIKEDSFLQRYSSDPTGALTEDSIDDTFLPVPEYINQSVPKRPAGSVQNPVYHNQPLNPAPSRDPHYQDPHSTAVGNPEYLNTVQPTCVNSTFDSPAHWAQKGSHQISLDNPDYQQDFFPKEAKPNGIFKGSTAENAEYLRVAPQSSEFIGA
Chain of Nociceptin receptor (Homo sapiens) (P41146 whole entry): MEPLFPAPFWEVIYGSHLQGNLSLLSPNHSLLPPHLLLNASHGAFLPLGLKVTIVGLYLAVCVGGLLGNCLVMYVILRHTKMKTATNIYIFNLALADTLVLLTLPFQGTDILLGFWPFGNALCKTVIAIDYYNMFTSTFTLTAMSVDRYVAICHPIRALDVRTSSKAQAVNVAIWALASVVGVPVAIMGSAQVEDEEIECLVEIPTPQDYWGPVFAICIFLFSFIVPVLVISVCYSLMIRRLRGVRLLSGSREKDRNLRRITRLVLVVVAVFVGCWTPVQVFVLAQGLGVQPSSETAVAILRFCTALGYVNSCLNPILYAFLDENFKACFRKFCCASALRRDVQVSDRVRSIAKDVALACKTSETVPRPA

C[C@@H]1CN(c2cc(-c3nn(C)c4ccc(OC5(C)CC5)cc34)ncn2)C[C@H](C)O1 [MLi-2-NC]
inactive: [1] -0.18%

C[C@@H]1CN(c2cc(-c3n[nH]c4ccc(OC5(C)CC5)cc34)ncn2)C[C@H](C)O1 [MLi-2]
inactive: [2] 71.9% | [3] 7% | [4] -3% | [5] -2.46% | [6] 2.37% | [7] -7.34% | Rattus norvegicus 0% | [8] 2.15% | [9] 1% | [10] 18% | [11] -7% | [12] 3.21%
